Assays:
azeB expression = assay: azeB-luxCDABE reporter (dual pyocyanin/azeB-lux assay); settings: 50 and 100 μM, azeB-lux reporter strains
PqsE(WT) = target: T1, PqsE(WT) (Pseudomonas aeruginosa, UniProt P20581); assay: biochemical
T1 construct: 6xHis (N); made in house; host or cells: E. coli BL21 (DE3), pET28b-6xHis-pqsE(WT) (strain SM776)

intracellular PqsE = target: T2, intracellular PqsE (Pseudomonas aeruginosa, UniProt P20581); format: cell-based; settings: 8 h growth
T2 construct: endogenous in cells; host or cells: P. aeruginosa UCBPP-PA14 wild type

PqsE(S285W) = target: T3, PqsE(S285W) (Pseudomonas aeruginosa, UniProt P20581, S285W); assay: biochemical
T3 construct: 6xHis (N); made in house; host or cells: E. coli BL21 (DE3), pET28b-6xHis-pqsE(S285W) (strain IT55)

Compound	Effect on azeB expression (luminescence/OD600) (azeB expression)	IC50 (PqsE(WT))	Decrease in acetophenone (intracellular PqsE; 10 μM, wildtype P. aeruginosa)	Effect on acetophenone levels at 100 μM (intracellular PqsE; 100 μM, compared to pqsE(D73A) strain)	IC50 (PqsE(S285W))	Effect on acetophenone levels (intracellular PqsE; 10 and 100 μM)
O=c1n(CCCN2CCN(c3cccc(Cl)c3)CC2)nc2ccccn12 [Trazodone]	not accompanied by increases in azeB expression	–	–	–	–	–
O=C(CCCCCCC(=O)Nc1ccccc1)NO [Vorinostat]	not accompanied by increases in azeB expression	1.2 µM	30%	full inhibition of PqsE catalytic activity	–	–
CN1CCc2cccc3c2[C@H]1Cc1ccc(O)c(O)c1-3 [Apomorphine]	not accompanied by increases in azeB expression	18 µM	–	–	22 µM	no significant effect on acetophenone levels
